Experiments:
[1] = target: T1, Voltage-gated inwardly rectifying potassium channel KCNH2 (Homo sapiens, UniProt Q12809); assay: Inhibition of hERG expressed in HEK cells assessed as Rb+ efflux ratio at 1 mg/L incubated for 4 mins (reference value: 79.71 to 94.98 %); assay type: toxicity, cell-based; set-up: scale not given: the % may be the effect or the level left; conditions: at 1 µg/mL
[2] = target: T1, Voltage-gated inwardly rectifying potassium channel KCNH2; assay: Inhibition of hERG expressed in HEK cells assessed as Rb+ efflux ratio at 100 mg/L incubated for 4 mins (reference value: 79.71 to 94.98 %); assay type: toxicity, cell-based; set-up: scale not given: the % may be the effect or the level left; conditions: at 100 µg/mL
[3] = target: T1, Voltage-gated inwardly rectifying potassium channel KCNH2; assay: Inhibition of hERG expressed in HEK cells assessed as Rb+ efflux ratio at 10 mg/L incubated for 4 mins (reference value: 79.71 to 94.98 %); assay type: toxicity, cell-based; set-up: scale not given: the % may be the effect or the level left; conditions: at 10 µg/mL
[4] = tested on: Mus musculus; assay: Analgesic activity against acetic acid-induced Kunming writhing mouse model assessed as inhibition of writhing at 3.5 mg/kg, sc pretreated with compound for 15 mins followed by acetic acid addition and measured after 15 mins relative to control; assay type: functional; conditions: 0.5 h, time 30 min
[5] = Acute toxicity in sc dosed Kunming mouse assessed as mortality rate measured after 24 hrs; assay type: organism-based; conditions: in vivo
[6] = tested on: Mus musculus; assay: Analgesic activity against sc dosed acetic acid-induced Kunming writhing mouse model assessed as inhibition of writhing pretreated with compound for 15 mins followed by acetic acid addition and measured after 15 mins; assay type: functional; conditions: 0.5 h, time 30 min
[7] = Therapeutic index, ratio of LD50 for acute toxicity in sc dosed Kunming mouse to ratio of ED50 for analgesic activity against sc dosed acetic acid-induced Kunming writhing mouse model; assay type: organism-based; conditions: in vivo, read-out: TI
[8] = tested on: Mus musculus; assay: Analgesic activity against acetic acid-induced Kunming writhing mouse model assessed as inhibition of writhing at 10 mg/kg, sc pretreated with compound for 15 mins followed by acetic acid addition and measured after 15 mins relative to control; assay type: functional; conditions: 0.5 h, time 30 min
[9] = Drug metabolism in sc dosed acetic acid-induced Kunming writhing mouse model assessed as metabolites in feces; assay type: ADME, organism-based; conditions: in vivo
[10] = Drug metabolism in sc dosed acetic acid-induced Kunming writhing mouse model assessed as metabolites in urine; assay type: ADME, organism-based; conditions: in vivo

T1 sequence (Q12809 whole entry): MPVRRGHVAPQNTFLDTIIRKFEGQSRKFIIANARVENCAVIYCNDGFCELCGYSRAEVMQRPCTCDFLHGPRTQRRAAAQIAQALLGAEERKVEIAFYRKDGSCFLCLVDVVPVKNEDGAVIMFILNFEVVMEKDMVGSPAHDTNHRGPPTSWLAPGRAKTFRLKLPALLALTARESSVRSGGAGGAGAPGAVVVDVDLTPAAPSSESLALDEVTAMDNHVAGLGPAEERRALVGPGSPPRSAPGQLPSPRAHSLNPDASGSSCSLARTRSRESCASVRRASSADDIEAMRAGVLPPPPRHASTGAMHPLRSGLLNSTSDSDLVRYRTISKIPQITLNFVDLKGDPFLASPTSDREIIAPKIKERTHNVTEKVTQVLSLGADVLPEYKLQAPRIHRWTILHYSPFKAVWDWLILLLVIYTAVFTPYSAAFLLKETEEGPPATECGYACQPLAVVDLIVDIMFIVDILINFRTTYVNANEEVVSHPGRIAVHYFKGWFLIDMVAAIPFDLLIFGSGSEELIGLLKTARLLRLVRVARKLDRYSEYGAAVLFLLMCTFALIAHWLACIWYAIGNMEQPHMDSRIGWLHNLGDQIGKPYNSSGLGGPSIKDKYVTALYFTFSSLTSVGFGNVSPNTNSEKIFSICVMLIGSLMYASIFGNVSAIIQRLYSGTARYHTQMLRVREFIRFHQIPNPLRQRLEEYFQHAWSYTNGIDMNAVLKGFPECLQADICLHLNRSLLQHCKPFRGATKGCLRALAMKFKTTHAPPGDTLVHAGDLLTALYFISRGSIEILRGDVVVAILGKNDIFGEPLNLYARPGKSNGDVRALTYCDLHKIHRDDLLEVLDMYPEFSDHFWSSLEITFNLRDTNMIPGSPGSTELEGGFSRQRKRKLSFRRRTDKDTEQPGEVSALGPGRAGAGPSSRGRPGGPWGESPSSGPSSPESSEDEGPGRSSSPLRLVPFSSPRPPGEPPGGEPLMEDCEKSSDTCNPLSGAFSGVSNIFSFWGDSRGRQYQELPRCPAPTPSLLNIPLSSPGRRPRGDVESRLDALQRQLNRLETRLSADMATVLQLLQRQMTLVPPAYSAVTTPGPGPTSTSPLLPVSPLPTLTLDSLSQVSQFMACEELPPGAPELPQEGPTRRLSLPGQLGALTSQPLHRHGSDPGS

SMILES | Activity [1] [%] | Activity [2] [%] | Activity [3] [%] | inhibition in vivo at 3.5 mg/kg [4] [%] | LD50 at 24 h [5] [mg/kg] | ED50 [6] [mg/kg] | selectivity ratio [7] | inhibition in vivo at 10 mg/kg [8] [%] | Drug metabolism [9] | Drug metabolism [10]
CCN1C[C@]2(OC(=O)c3ccccc3N)CC[C@H](OC)[C@]34C1[C@H](C[C@H]23)[C@@]1(O)C[C@H](OC)[C@H]2C[C@@H]4[C@]1(O)[C@H]2OC | 96.05 | 65.7 | 92.35 | – | – | – | – | – | – | –
CCN1C[C@]2(OC(=O)c3ccccc3NC(C)=O)CC[C@H](OC)[C@]34C1[C@H](C[C@H]23)[C@@]1(O)C[C@H](OC)[C@H]2C[C@@H]4[C@]1(O)[C@H]2OC | – | – | – | 56.6 | 11.7 | 3.5 | – | – | – | –
CCN1C[C@]2(OC(=O)c3ccccc3NC(=O)c3ccc(OC(C)C)cc3)CC[C@H](OC)[C@]34C1[C@H](C[C@H]23)[C@@]1(O)C[C@H](OC)[C@H]2C[C@@H]4[C@]1(O)[C@H]2OC | – | – | – | – | 196 | 8.1 | 24.2 | 51.1 | – | –
CCN1C[C@]2(OC(=O)c3ccccc3NS(=O)(=O)c3ccccc3OC)CC[C@H](OC)[C@]34C1[C@H](C[C@H]23)[C@@]1(O)C[C@H](OC)[C@H]2C[C@@H]4[C@]1(O)[C@H]2OC | 80.88 | 50.83 | 65.13 | – | 300 | 5.5 | 54.5 | 71.2 | Metabolite_Detected | Metabolite_Detected
CCN1C[C@]2(OC(=O)c3ccccc3NS(=O)(=O)c3ccccc3)CC[C@H](OC)[C@]34C1[C@H](C[C@H]23)[C@@]1(O)C[C@H](OC)[C@H]2C[C@@H]4[C@]1(O)[C@H]2OC | 88.87 | 44.12 | 72.11 | – | > 600 | 6.1 | > 98.3 | 84.3 | Metabolite_Detected | Metabolite_Detected
CCN1C[C@]2(OC(=O)c3ccccc3NC(=O)C3CC3)CC[C@H](OC)[C@]34C1[C@H](C[C@H]23)[C@@]1(O)C[C@H](OC)[C@H]2C[C@@H]4[C@]1(O)[C@H]2OC | – | – | – | 33.5 | – | – | – | – | – | –
CCN1C[C@]2(OC(=O)c3ccccc3NC(=O)CC(C)(C)C)CC[C@H](OC)[C@]34C1[C@H](C[C@H]23)[C@@]1(O)C[C@H](OC)[C@H]2C[C@@H]4[C@]1(O)[C@H]2OC | – | – | – | 24.9 | – | – | – | – | – | –
C/C=C/C(=O)Nc1ccccc1C(=O)O[C@@]12CC[C@H](OC)[C@]34C([C@H](C[C@H]13)[C@@]1(O)C[C@H](OC)[C@H]3C[C@@H]4[C@]1(O)[C@H]3OC)N(CC)C2 | – | – | – | 24.4 | – | – | – | – | – | –
CCN1C[C@]2(OC(=O)c3ccccc3NC(=O)c3ccc(OC)cc3)CC[C@H](OC)[C@]34C1[C@H](C[C@H]23)[C@@]1(O)C[C@H](OC)[C@H]2C[C@@H]4[C@]1(O)[C@H]2OC | 77 | 69.69 | 76.58 | – | 296 | 4.4 | 67.4 | 62.8 | – | –
CCN1C[C@]2(OC(=O)c3ccccc3NS(=O)(=O)c3ccc4ccccc4c3)CC[C@H](OC)[C@]34C1[C@H](C[C@H]23)[C@@]1(O)C[C@H](OC)[C@H]2C[C@@H]4[C@]1(O)[C@H]2OC | – | – | – | – | – | – | – | 28.4 | – | –
CCOc1ccc(C(=O)Nc2ccccc2C(=O)O[C@@]23CC[C@H](OC)[C@]45C([C@H](C[C@H]24)[C@@]2(O)C[C@H](OC)[C@H]4C[C@@H]5[C@]2(O)[C@H]4OC)N(CC)C3)cc1 | 79.38 | 76.45 | 80.07 | – | 315 | 6.6 | 47.7 | 62.8 | – | –
CCCOc1ccc(C(=O)Nc2ccccc2C(=O)O[C@@]23CC[C@H](OC)[C@]45C([C@H](C[C@H]24)[C@@]2(O)C[C@H](OC)[C@H]4C[C@@H]5[C@]2(O)[C@H]4OC)N(CC)C3)cc1 | – | – | – | – | 214 | 10.2 | 20.9 | 48.4 | – | –
CCN1C[C@]2(OC(=O)c3ccccc3NC(=O)c3ccc(N(C)C)cc3)CC[C@H](OC)[C@]34C1[C@H](C[C@H]23)[C@@]1(O)C[C@H](OC)[C@H]2C[C@@H]4[C@]1(O)[C@H]2OC | 87.34 | 84.7 | 85.86 | – | 300 | 6.2 | 48.5 | 62.1 | Metabolite_Detected | Metabolite_Detected
CCN1C[C@]2(OC(=O)c3ccccc3NS(=O)(=O)c3ccccn3)CC[C@H](OC)[C@]34C1[C@H](C[C@H]23)[C@@]1(O)C[C@H](OC)[C@H]2C[C@@H]4[C@]1(O)[C@H]2OC | 95.97 | 73.6 | 88.42 | – | > 400 | 4.7 | > 85.1 | 71.2 | Metabolite_Detected | Metabolite_Detected

— ChEMBL document CHEMBL5352433, “Design, synthesis, and biological evaluation of low-toxic lappaconitine derivatives as potential analgesics” (Eur J Med Chem, 2022)
